Reference: the NIST ThermoML archive (doi:10.1021/je060222y)
Several values for one entry are separate records, joined by “and”; a condition that tells them apart may be missing. Identical values can stand only once. ± gives the expanded uncertainty stated by the source.

Columns and labels:
[1] = Molar enthalpy of transition or fusion; details: Crystal
[2] = molar heat capacity at constant pressure; details: 101.33 kPa, Liquid, Small sample (50 mg) DSC
[3] = for mass density: 101.33 kPa, Liquid; for Triple point temperature: Crystal

| Compound | molar heat capacity at constant pressure ([2]; 283.15 K) | molar heat capacity at constant pressure ([2]; 288.15 K) | molar heat capacity at constant pressure ([2]; 293.15 K) | molar heat capacity at constant pressure ([2]; 298.15 K) | molar heat capacity at constant pressure ([2]; 303.15 K) | molar heat capacity at constant pressure ([2]; 308.15 K) | molar heat capacity at constant pressure ([2]; 313.15 K) | molar heat capacity at constant pressure ([2]; 318.15 K) | molar heat capacity at constant pressure ([2]; 323.15 K) | mass density ([3]; 283.15 K) | mass density ([3]; 288.15 K) | mass density ([3]; 293.15 K) | mass density ([3]; 298.15 K) | mass density ([3]; 303.15 K) | mass density ([3]; 308.15 K) | mass density ([3]; 313.15 K) | mass density ([3]; 318.15 K) | mass density ([3]; 323.15 K) | Triple point temperature [3] | also measured |
| --- | --- | --- | --- | --- | --- | --- | --- | --- | --- | --- | --- | --- | --- | --- | --- | --- | --- | --- | --- | --- |
| CCCCn1cc[n+](C)c1.F[P-](F)(F)(F)(F)F [1-butyl-3-methylimidazolium hexafluorophosphate] | 400.9 ± 6.2 J/K/mol | 402.32 ± 6.2 J/K/mol | 404.97 ± 6.3 J/K/mol | 407.66 ± 6.3 J/K/mol | 410.33 ± 6.4 J/K/mol | 413.14 ± 6.4 J/K/mol | 415.98 ± 6.4 J/K/mol | 418.91 ± 6.5 J/K/mol | 421.88 ± 6.5 J/K/mol | 1379.14 ± 1.5 kg/m3 | 1374.83 ± 1.4 kg/m3 | 1370.43 ± 1.4 kg/m3 | 1366.12 ± 1.4 kg/m3 | 1361.76 ± 1.4 kg/m3 | 1357.52 ± 1.4 kg/m3 | 1353.35 ± 1.4 kg/m3 | 1349.16 ± 1.4 kg/m3 | 1345.02 ± 1.4 kg/m3 | 280.03 ± 0.77 K | Molar enthalpy of transition or fusion ([1]; DSC): 4.76 ± 0.139 kcal/mol |
| CCCC[n+]1ccn(C)c1.O=S(=O)([N-]S(=O)(=O)C(F)(F)F)C(F)(F)F | 558.99 ± 8.7 J/K/mol and 559.63 ± 8.7 J/K/mol | 561.29 ± 8.7 J/K/mol and 562.05 ± 8.7 J/K/mol | 564.02 ± 8.7 J/K/mol and 564.58 ± 8.8 J/K/mol | 566.47 ± 8.8 J/K/mol and 567.33 ± 8.8 J/K/mol | 569.01 ± 8.8 J/K/mol and 569.74 ± 8.8 J/K/mol | 572.11 ± 8.9 J/K/mol and 572.82 ± 8.9 J/K/mol | 575.03 ± 8.9 J/K/mol and 575.56 ± 8.9 J/K/mol | 577.84 ± 8.9 J/K/mol and 578.49 ± 9 J/K/mol | 581.06 ± 9 J/K/mol and 581.68 ± 9 J/K/mol | 1450.16 ± 1.7 kg/m3 and 1448.52 ± 1.7 kg/m3 | 1445.33 ± 1.7 kg/m3 and 1443.69 ± 1.7 kg/m3 | 1440.51 ± 1.7 kg/m3 and 1438.89 ± 1.6 kg/m3 | 1435.73 ± 1.7 kg/m3 and 1434.1 ± 1.6 kg/m3 | 1430.94 ± 1.7 kg/m3 and 1429.31 ± 1.6 kg/m3 | 1426.17 ± 1.6 kg/m3 and 1424.54 ± 1.6 kg/m3 | 1421.4 ± 1.6 kg/m3 and 1419.78 ± 1.6 kg/m3 | 1416.66 ± 1.6 kg/m3 and 1415.04 ± 1.6 kg/m3 | 1411.94 ± 1.6 kg/m3 and 1410.31 ± 1.6 kg/m3 | 268.51 ± 0.77 K and 267.61 ± 0.77 K | Molar enthalpy of transition or fusion [1]: 5.36 kcal/mol and 5.86 kcal/mol; molar heat capacity at constant pressure ([2]; 328.15 K): 584.36 ± 9.1 J/K/mol and 584.82 ± 9.1 J/K/mol; mass density ([3]; 278.15 K): 1454.98 ± 1.7 kg/m3 and 1453.33 ± 1.7 kg/m3; mass density ([3]; 328.15 K): 1407.23 ± 1.6 kg/m3 and 1405.6 ± 1.6 kg/m3; mass density ([3]; 333.15 K): 1402.55 ± 1.6 kg/m3 and 1400.92 ± 1.5 kg/m3 |
